Assay results: the NIST ThermoML archive (doi:10.1016/j.fluid.2004.10.025)
± gives the expanded uncertainty stated by the source.

Settings: Liquid

Row | Compound | vapor or sublimation pressure (283.15 K) [kPa] | vapor or sublimation pressure (288.15 K) [kPa] | vapor or sublimation pressure (293.15 K) [kPa] | vapor or sublimation pressure (298.15 K) [kPa] | vapor or sublimation pressure (303.15 K) [kPa] | vapor or sublimation pressure (308.15 K) [kPa] | vapor or sublimation pressure (313.15 K) [kPa] | vapor or sublimation pressure (318.15 K) [kPa] | vapor or sublimation pressure (323.15 K) [kPa]
1 | ClC(Cl)C(Cl)Cl [1,1,2,2-tetrachloroethane] | 0.263 ± 0.021 | 0.373 ± 0.021 | 0.521 ± 0.022 | 0.711 ± 0.023 | 0.98 ± 0.025 | 1.289 ± 0.028 | 1.701 ± 0.028 | 2.236 ± 0.029 | 2.86 ± 0.03
2 | ClC(Cl)=C(Cl)Cl [tetrachloroethene] | 1.023 ± 0.026 | 1.4 ± 0.027 | 1.861 ± 0.028 | 2.462 ± 0.029 | 3.205 ± 0.031 | 4.117 ± 0.033 | 5.253 ± 0.036 | 6.621 ± 0.039 | 8.286 ± 0.043
3 | ClC(Cl)(Cl)Cl [tetrachloromethane] | 7.514 ± 0.042 | 9.601 ± 0.047 | 12.14 ± 0.054 | 15.22 ± 0.064 | 18.98 ± 0.076 | 23.36 ± 0.09 | 28.53 ± 0.11 | 34.59 ± 0.13 | 41.68 ± 0.15
